Laboratory results taken from patent US11420922B2, “Hydroxylated tropolone inhibitors of nucleotidyl transferases in herpesvirus and Hepatitis B and uses therefor” (Saint Louis University, priority 2015, dated 2022).
pEC50: −log10 of the molar value. Where two headings read alike, the source gives them in different places.

Tests used:
[1] = tested on: HSV-1; assay: Anti-HSV-1 replication assay in Vero cells, titers by plaque assay; format: cell-based, herpes simplex virus 1; conditions: Human alphaherpesvirus 1, Vero; for log reduction at 5 µM / log reduction at 50 µM: 24 h; for log reduction at 5 µM: read-out: HSV-1 Log suppression 5 μM; for log reduction at 50 µM: read-out: HSV-1 Log suppression 50 μM; for log reduction at 1.5 µM: read-out: HSV-1 Log suppression 1.5 μM
Description: Vero cells were maintained in Dulbecco's modified Eagle's medium (DMEM) containing 3% newborn calf serum, 3% bovine growth serum, 2 mM L-glutamine and 100 IU/mL penicillin and 0.1 mg/mL streptomycin (P/S). HSV-1 #6 and HSV-2 #1 are de-identified clinical isolates from the Saint Louis University Hospital. Stocks were prepared after a single passage in cell culture and were titered by standard plaque assay (Knipe and Spang, 1982). Wild-type HSV-2 used in FIG. 3 was laboratory strain 333. […] Virus stocks were grown and titered on Vero cells (Morrison and Knipe, 1996).
(§1) Compounds to be screened were diluted in PBS supplemented to contain 2% newborn calf serum and 1% glutamine, and added in 100 μL volume to confluent cell monolayers in 24-well cluster plates. Immediately thereafter HSV-1 and HSV-2, diluted in the supplemented PBS medium, were added to the wells in 50 μl volume such that the final concentration of compound was 50 μM and 5 μM and the multiplicity of infection was 0.1. The plates were incubated at 37° C. for 1 hour and then virus-containing inoculum was removed and the wells were washed once in PBS. Compounds, diluted to 50 μM and 5 μM in DMEM supplemented to contain 2% newborn calf serum and 1% each penicillin/streptomycin, were added at 0.5 mL/well. Plates were incubated at 37° C. an additional 23 hr, and then the plates were visually inspected through a phase contrast microscope for cytopathic effect, and for toxic effect. […] The entire contents of each well were collected by scraping. Samples were frozen at −80° C., and then subsequently thawed, sonicated, and infectious virus titer was determined by standard plaque assay on Vero cell monolayers. Because the compounds were dissolved at 10 mM in 100% DMSO, equivalent dilutions of DMSO were added to additional wells as a control for effects of the diluent. Each experiment was repeated once. EC50 values were determined as above except that serial dilutions of the compound to be tested were prepared starting at 50 μM. The inhibitory values were calculated by non-linear curve-fitting in GraphPad Prism.

[2] = tested on: HSV-2; assay: Anti-HSV-2 replication assay in Vero cells, titers by plaque assay; format: cell-based, herpes simplex virus 2; conditions: for log reduction at 5 µM / log reduction at 50 µM: Human alphaherpesvirus 2, Vero, 24 h; for log reduction at 5 µM: read-out: HSV-2 Log suppression 5 μM; for log reduction at 50 µM: read-out: HSV-2 Log suppression 50 μM
[3] = tested on: HSV; assay: Anti-HSV SAR summary, HSV type not separated; format: cell-based, herpes simplex virus; conditions: grouped by activity at 50, 5 and 0.5 μM
Description: as §1
A series of over 20 synthetic αHTs were synthesized and tested to both confirm the initial SAR, and to provide leads for further optimization pursuits (FIG. 5). […] Specifically, biphenyl-containing molecules #118 and 115 inhibit HSV replication by up to 4 log10 at 200 nM. The increased potency over close analogs #111 and 113 confirmed the importance of added lipophilicity.

[4] = tested on: HBV; assay: HBV replication assay in HepDES19 cells; format: cell-based; conditions: Hepatitis B virus; HepDES19 cells; read-out: EC50 (HBV assay)
Description: HBV replication assay. Inhibition of HBV replication was measured in HepDES19 cells as previously described (Cai, et al., 2014). Cells were seeded into 6-well plates and incubated in DMEM/F12, 10% fetal bovine serum (FBS), 1% penicillin/streptomycin (P/S) with 1 μg/ml tetracycline. Tetracycline was withdrawn after 24 hours. The test compound was applied to duplicate wells 48 hours later in medium containing a final DMSO concentration of 1%, and medium containing the compound was refreshed daily for the following two days. Cells were harvested and non-encapsidated nucleic acids were digested with micrococcal nuclease (New England Biolabs). HBV DNA was purified from capsids using QIAamp Cador Pathogen Mini Kit (Qiagen) with proteinase K incubation overnight at 37° C. TaqMan PCR was performed for 40 cycles at an annealing temperature of 60° C. Primers and probe (IDT Inc.) for the plus-polarity strand were: 5′[…]3′ (SEQ ID NO: 1); 5′[…]3′ (SEQ ID NO: 2); 5′/56-FAM/[…]/ZEN/[…]/3IABkFQ (SEQ ID NO: 3). Primers and probe for the minus-polarity strand were: 5′[…]3′ (SEQ ID NO: 4); 5′[…]3′ (SEQ ID NO: 5); 5′/56-FAM/[…]/ZEN/[…]/3IABkFQ (SEQ ID NO: 6).

[5] = Cytotoxicity reported with the HBV assay (Table 4); format: cell-based; conditions: human
Description: Qualitative assessments of cytotoxicity were done visually by inspecting the cells in the primary screening assays. For the quantitative assays, cells were plated in 96-well plates at 1.0×10^4 per well. The next day the compounds were added at 0.78 to 100 μM in a final concentration of 1% (v/v) DMSO, and the cells were incubated for 24 hours under conditions identical to those employed for the viral replication inhibition assays. Mitochondrial toxicity was measured by incubating the cells with 0.25 mg/mL thiazolyl blue tetrazolium bromide (MTT, Sigma Aldrich Chemical Co.), the cultures were incubated for 60 min, metabolites were solubilized in acidic isopropanol, and absorbance was read at 570 nm. CC50 values were calculated by non-linear curve fitting using GraphPad Prism.

[6] = 5 μM, moi 0.1, 24 h, vs DMSO, +/− are qualitative, key not given
[7] = 50 μM, moi 0.1, 24 h, vs DMSO, +/−/T are qualitative, key not given
[8] = hepatoma cells, read-out: CC50 (HBV assay table)

## Nc1ccn(C[C@@H](CO)OCP(=O)(O)O)c(=O)n1 [CDV, Cidofovir, reference compound]
[1]; [6]
  log reduction at 5 µM: 0.77
[1]; [7]
  log reduction at 50 µM: 2.67
[2]; [6]
  log reduction at 5 µM: 0.38
[2]; [7]
  log reduction at 50 µM: 1.19

## COC(=O)c1c(C)cc(O)c(=O)c(O)c1C(=O)OC [Compound 106]
[3]
  anti-HSV SAR group, in words: weakest inhibitors
[4]
  pEC50: 5.57
[1]
  log reduction at 5 µM: -0.07
  log reduction at 50 µM: 4.11
[2]
  log reduction at 5 µM: -0.55
  log reduction at 50 µM: 2.87

## COC(=O)c1c(CCl)cc(O)c(=O)c(O)c1C(=O)OC [Compound 107]
[5]; [8]
  CC50 at 24 h: 71 µM

## COCc1cc(O)c(=O)c(O)c(C(=O)OC)c1C(=O)OC [Compound 108]
[3]
  anti-HSV SAR group, in words: weakest inhibitors
[5]; [8]
  CC50 at 24 h: 81 µM
[1]
  log reduction at 5 µM: 0
[2]
  log reduction at 5 µM: 0

## CCOC(=O)c1cc(O)c(=O)c(O)cc1C [Compound 109]
[3]
  anti-HSV SAR group, in words: weakest inhibitors
[1]
  log reduction at 5 µM: 0.21
  log reduction at 50 µM: 3.99
[2]
  log reduction at 5 µM: -0.22
  log reduction at 50 µM: 4.15

## Cc1cc(O)c(=O)c(O)cc1-c1ccc([N+](=O)[O-])cc1 [Compound 112]
[3]
  anti-HSV SAR group, in words: weakest inhibitors
[4]
  pEC50: 5.60
[1]
  log reduction at 5 µM: 0.02
  log reduction at 50 µM: 5.25
[2]
  log reduction at 5 µM: -0.4
  log reduction at 50 µM: 3.2

## Cc1cc(O)c(=O)c(O)cc1-c1ccc(Cl)cc1 [Compound 144]
[3]
  anti-HSV SAR group, in words: weakest inhibitors
[1]
  log reduction at 5 µM: -0.34
  log reduction at 50 µM: 3.83
[2]
  log reduction at 5 µM: 0.65
  log reduction at 50 µM: 5.18

## O=c1c(O)cccc2cc(O)c(O)c(O)c12 [Compound 195, purpurogallin]
[1]
  log reduction at 5 µM: 0.17
  log reduction at 50 µM: 0.2
[2]
  log reduction at 5 µM: -0.04
  log reduction at 50 µM: 0.11

## Cc1ccc(O)c(=O)c(O)c1 [Compound 210]
[1]
  log reduction at 5 µM: 4.32
  log reduction at 50 µM: 4.56
[2]
  log reduction at 5 µM: 4.04
  log reduction at 50 µM: 5.55

## Cc1cc(O)c(=O)c(O)cc1-c1cccc(-c2ccccc2)c1 [Compound 231]
[4]
  pEC50: 5.00
[5]; [8]
  CC50 at 24 h: 16 µM

## Cc1cc(O)c(=O)c(O)cc1-c1cccc(-c2ccc3ccccc3c2)c1 [Compound 232]
[4]
  pEC50: 5.02
[5]; [8]
  CC50 at 24 h: 55 µM

## Cc1cc(O)c(=O)c(O)cc1-c1ccc(-c2ccc3ccccc3c2)cc1 [Compound 233]
[1]
  log reduction at 1.5 µM: 2.63

## Cc1cc(O)c(=O)c(O)cc1-c1cccc(-c2cccc3ccccc23)c1 [Compound 234]
[1]
  log reduction at 1.5 µM: 2.71

## Cc1cc(O)c(=O)c(O)cc1-c1ccc(-c2cccc3ccccc23)cc1 [Compound 235]
[4]
  pEC50: 5.28
[5]; [8]
  CC50 at 24 h: 30 µM

## Cc1cc(O)c(=O)c(O)cc1C(=O)c1cccc(-c2ccccc2)c1 [Compound 255]
[1]
  log reduction at 1.5 µM: 5.02

## Cc1cc(O)c(=O)c(O)cc1C(=O)c1ccc(-c2cccc3ccccc23)cc1 [Compound 256]
[1]
  log reduction at 1.5 µM: 5.18

## Cc1cc(O)c(=O)c(O)cc1C(=O)c1cccc(-c2cccc3ccccc23)c1 [Compound 257]
[4]
  pEC50: 5.08
[5]; [8]
  CC50 at 24 h: 32 µM
[1]
  log reduction at 1.5 µM: 4.82

## Cc1cc(O)c(=O)c(O)cc1C(=O)c1ccc(-c2ccc3ccccc3c2)cc1 [Compound 258]
[4]
  pEC50: 5.06
[5]; [8]
  CC50 at 24 h: 28 µM
[1]
  log reduction at 1.5 µM: 5.04

## Cc1cc(O)c(=O)c(O)cc1C(=O)c1cccc(-c2ccc3ccccc3c2)c1 [Compound 259]
[4]
  pEC50: 5.55
[5]; [8]
  CC50 at 24 h: 21 µM
[1]
  log reduction at 1.5 µM: 5.05

## Cc1cc(O)c(=O)c(O)cc1C(=O)c1ccc(-c2ccncc2)cc1 [Compound 260]
[1]
  log reduction at 1.5 µM: 0.5

## O=c1c(O)ccc(Br)cc1O [Compound 261]
[5]; [8]
  CC50 at 24 h: > 100 µM

## O=c1c(O)ccc(-c2ccccc2)cc1O [Compound 262]
[5]; [8]
  CC50 at 24 h: 96 µM

## O=c1c(O)ccc(-c2ccc(-c3ccccc3)cc2)cc1O [Compound 264]
[5]; [8]
  CC50 at 24 h: 28 µM

## O=c1c(O)ccc(-c2ccco2)cc1O [Compound 265]
[5]; [8]
  CC50 at 24 h: 40 µM

## O=c1c(O)ccc(-c2ccncc2)cc1O [Compound 266]
[5]; [8]
  CC50 at 24 h: 32 µM

## O=c1c(O)ccc(-c2cnc3ccccc3c2)cc1O [Compound 267]
[5]; [8]
  CC50 at 24 h: 25 µM

## COC(=O)c1c(C)cc(OC)c(=O)c(O)c1OC [Compound 269]
[5]; [8]
  CC50 at 24 h: > 100 µM
[1]
  log reduction at 5 µM: 1.48
  log reduction at 50 µM: 3.76
  log reduction at 1.5 µM: 0.24
[2]; 1.5 μM
  HSV-2 Log suppression 1.5 μM: 4.04 log10
[2]
  log reduction at 50 µM: 4.67

## CCOC(=O)c1c(C)cc(O)c(=O)c(O)c1O [Compound 270]
[1]
  log reduction at 5 µM: 5.97
  log reduction at 50 µM: 6.47
[2]
  log reduction at 5 µM: 6.32
  log reduction at 50 µM: 6.9

## O=C1OCc2cc(O)c(=O)c(O)c(O)c21 [Compound 271]
[1]
  log reduction at 5 µM: 0.47
  log reduction at 50 µM: 1.87
  log reduction at 1.5 µM: 0.21
[2]
  log reduction at 5 µM: 1.53
  log reduction at 50 µM: 2.94

## COC(=O)c1cc(O)c(=O)c(OC)cc1C [Compound 273]
[1]
  log reduction at 5 µM: 5.75
  log reduction at 50 µM: 6.05
  log reduction at 1.5 µM: 2.12
[2]
  log reduction at 5 µM: 6.32
  log reduction at 50 µM: 6.9

## COC(=O)c1cc(O)c(=O)c(O)cc1C [Compound 274]
[5]; [8]
  CC50 at 24 h: > 100 µM
[1]
  log reduction at 1.5 µM: 0.59

## COC(=O)c1c2c(cc(O)c(=O)c1O)COC2=O [Compound 280]
[5]
  CC50 at 24 h: 32 µM
